Laboratory results from patent US9073821B2, “Hydroxamic acid derivative” (priority 2010, dated 2015).
pIC50: −log10 of the molar value.

The molecules below were run against Pseudomonas aeruginosa LpxC enzyme (Pseudomonas aeruginosa (strain ATCC 15692 / DSM 22644 / CIP 104116 / JCM 14847 / LMG 12228 / 1C / PRS 101 / PAO1), UniProt P47205) (assay: biochemical). Settings: class symbols A/B/C by IC50; Table 3; read-out: Enzyme inhibitory activity (inhibitory activity on Pseudomonas aeruginosa LpxC enzyme).
Type: biochemical
Method: Test 1: Evaluation of the Inhibitory Activity on Pseudomonas aeruginosa LpxC Enzyme
An inhibition curve was constructed for each test compound by performing the aforementioned reaction at varying concentrations of the test compound. From this inhibition curve, the concentration of the test compound at which the formation of the reaction product was suppressed by 50% was determined as the IC50 of the test compound, which was an index for the inhibitory activity on Pseudomonas aeruginosa LpxC enzyme.

pIC50 | SMILES
> 8.00 | CCO/N=C/c1cc(C#Cc2ccc(C(=O)N(C)C(C(=O)NC)C(=O)NO)cc2)co1 (stereo not shown) [Compound 506, 2-[{[4-({5-[(E)-(ethoxyimino)methyl]furan-3-yl}ethynyl)phenyl]carbonyl}(methyl)amino]-N-hydroxy-N′-methylpropanediamide]
> 8.00 | CNC(=O)[C@@](C)(C(=O)NO)N(C)C(=O)c1ccc(C#Cc2coc(C)n2)cc1 [Compound 575, (2S)-N-hydroxy-N′,2-dimethyl-2-[methyl({4-[(2-methyl-1,3-oxazol-4-yl)ethynyl]phenyl}carbonyl)amino]propanediamide]
7.00 to 8.00 | CNC(=O)C(C(=O)NO)N(C)C(=O)c1ccc(C#Cc2ccc(CN3CC4(CCC4)C3)cc2)cc1 (stereo not shown) [Compound 524, 2-{[(4-{[4-(2-azaspiro[3.3]hept-2-ylmethyl)phenyl]ethynyl}phenyl)carbonyl](methyl)amino}-N-hydroxy-N′-methylpropanediamide]

Same assay, conditions: inhibitory activity on Pseudomonas aeruginosa LpxC enzyme, class symbols A/B/C; read-out: Enzyme inhibitory activity

SMILES | pIC50
CN(C)C(=O)CNC(=O)C(C(=O)NO)N(C)C(=O)c1ccc(-c2ccccc2)cc1 (stereo not shown) [Compound 173, 2-[(biphenyl-4-ylcarbonyl)(methyl)amino]-N-[2-(dimethylamino)-2-oxoethyl]-N′-hydroxypropanediamide] | < 7.00
CNC(=O)C(C(=O)NO)N(C)C(=O)c1ccc(-c2ccc3c(ccn3C)c2)cc1 (stereo not shown) [Compound 19, N-hydroxy-N′-methyl-2-{methyl[4-(1-methyl-1H-indol-5-yl)benzoyl]amino}propanediamide] | > 8.00
CNC(=O)C(C(=O)NO)N(C)C(=O)c1ccc(-c2ccc(C(C)(C)C)cc2)cc1 (stereo not shown) [Compound 240, 2-{[(4′-tert-butylbiphenyl-4-yl)carbonyl](methyl)amino}-N-hydroxy-N′-methylpropanediamide] | 7.00 to 8.00
CCCOc1ccc(-c2ccc(C(=O)N(C)C(C(=O)NC)C(=O)NO)cc2)cn1 (stereo not shown) [Compound 467, N-hydroxy-N′-methyl-2-(methyl {[4-(6-propoxypyridin-3-yl)phenyl]carbonyl}amino)propanediamide] | > 8.00
CNC(=O)C(NC(=O)c1ccc(C#Cc2ccc(NCCO)cc2)cc1)C(=O)NO (stereo not shown) [Compound 115, N-hydroxy-2-{[4-({4-[(2-hydroxyethyl)amino]phenyl}ethynyl)benzoyl]amino}-N′-methylpropanediamide] | > 8.00
CNC(=O)C(C(=O)NO)N(C)C(=O)c1ccc(C#Cc2ccc3c(c2)CN(C2CC2)C3)cc1 (stereo not shown) [Compound 385, 2-[({4-[(2-cyclopropyl-2,3-dihydro-1H-isoindol-5-yl)ethynyl]phenyl}carbonyl)(methyl)amino]-N-hydroxy-N′-methylpropanediamide] | > 8.00
CNC(=O)C(C(=O)NO)N(C)C(=O)c1ccc(-c2ccc(N3CCC(CN4CCOCC4)C3)cc2)cc1 (stereo not shown) [Compound 287, N-hydroxy-N′-methyl-2-[methyl({4′-[3-(morpholin-4-ylmethyl)pyrrolidin-1-yl]biphenyl-4-yl}carbonyl)amino]propanediamide] | > 8.00
CNC(=O)C(C(=O)NO)N(C)C(=O)c1ccc(-c2ccc3c(c2)cc(C)n3C)cc1 (stereo not shown) [Compound 57, 2-{[4-(1,2-dimethyl-1H-indol-5-yl)benzoyl](methyl)amino}-N-hydroxy-N′-methylpropanediamide] | > 8.00
CNC(=O)C(C(=O)NO)N(C)C(=O)c1ccc(-c2ccc(OCCCN3CC=CCC3)cc2)cc1 (stereo not shown) [Compound 263, 2-[({4′-[3-(3,6-dihydropyridin-1(2H)-yl)propoxy]biphenyl-4-yl}carbonyl)(methyl)amino]-N-hydroxy-N′-methylpropanediamide] | 7.00 to 8.00
CNC(=O)C(C(=O)NO)N(C(=O)c1ccc(-c2ccccc2)cc1)C1CC1 (stereo not shown) [Compound 127, 2-[(Biphenyl-4-ylcarbonyl)(cyclopropyl)amino]-N-hydroxy-N′-methylpropanediamide] | > 8.00
CNC(=O)C(C(=O)NO)N(C)C(=O)c1ccc(C#Cc2ccc(CNC(C)(C)C)cc2)cc1 (stereo not shown) [Compound 328] | 7.00 to 8.00
CNC(=O)C(C(=O)NO)N(C)C(=O)c1ccc(-c2ccccc2)cc1C (stereo not shown) [Compound 21, N-hydroxy-N′-methyl-2-{methyl[(3-methylbiphenyl-4-yl)carbonyl]amino}propanediamide] | < 7.00

Next, values leading:

pIC50 | SMILES
> 8.00 | CNC(=O)C(C)(C(=O)NO)N(C)C(=O)c1ccc(-c2ccc(OC)cc2)cc1 (stereo not shown) [Compound 348, N-hydroxy-2-{[(4′-methoxybiphenyl-4-yl)carbonyl](methyl)amino}-N′,2-dimethylpropanediamide]
7.00 to 8.00 | CNC(=O)C(C(=O)NO)N(C)C(=O)c1ccc(C#Cc2ccc(CNC3CCCCC3)cc2)cc1 (stereo not shown) [Compound 318, 2-[{[4-({4-[(cyclohexylamino)methyl]phenyl}ethynyl)phenyl]carbonyl}(methyl)amino]-N-hydroxy-N′-methylpropanediamide]
< 7.00 | CNC(=O)C(C(=O)NO)N(C)C(=O)c1ccc(-c2ncccn2)cc1 (stereo not shown) [Compound 311, N-hydroxy-N′-methyl-2-(methyl {[4-(pyrimidin-2-yl)phenyl]carbonyl}amino)propanediamide]
< 7.00 | CNC(=O)C(C(=O)NO)N(C)C(=O)c1ccc(-c2ccc(C(F)(F)F)cn2)cc1 (stereo not shown) [Compound 297, N-hydroxy-N′-methyl-2-[methyl({4-[5-(trifluoromethyl)pyridin-2-yl]phenyl}carbonyl)amino]propanediamide]
> 8.00 | CNC(=O)[C@@](C)(C(=O)NO)N(C)C(=O)c1ccc(C#Cc2ccc(CS(C)(=O)=O)cc2)cc1 [Compound 422, (2S)-N-hydroxy-N′,2-dimethyl-2-(methyl {[4-({4-[(methylsulfonyl)methyl]phenyl}ethynyl)phenyl]carbonyl}amino)propanediamide]
7.00 to 8.00 | CNC(=O)C(C(=O)NO)N(C)C(=O)c1ccc(-c2nc3ccccc3s2)cc1 (stereo not shown) [Compound 344, 2-[{[4-(1,3-benzothiazol-2-yl)phenyl]carbonyl}(methyl)amino]-N-hydroxy-N′-methylpropanediamide]
7.00 to 8.00 | CNC(=O)C(C(=O)NO)N(C)C(=O)c1ccc(-c2ccc3ncn(C)c3c2)cc1 (stereo not shown) [Compound 282, N-hydroxy-N′-methyl-2-{methyl[4-(1-methyl-1H-benzimidazol-6-yl)benzoyl]amino}propanediamide]
7.00 to 8.00 | CNC(=O)C(C(=O)NO)N(C)C(=O)c1ccc(-c2ccc(OCc3ccc(C(=O)O)cc3)cc2)cc1 (stereo not shown) [Compound 98, 4-{[(4′-{[1-(hydroxyamino)-3-(methylamino)-1,3-dioxopropan-2-yl](methyl)carbamoyl}biphenyl-4-yl)oxy]methyl}benzoate]
> 8.00 | CNC(=O)C(C(=O)NO)N(C)C(=O)c1ccc(C#Cc2ccc(CN3Cc4ccccc4C3)cc2)cc1 (stereo not shown) [Compound 489, 2-{[(4-{[4-(1,3-dihydro-2H-isoindol-2-ylmethyl)phenyl]ethynyl}phenyl)carbonyl](methyl)amino}-N-hydroxy-N′-methylpropanediamide]
> 8.00 | CNC(=O)C(C(=O)NO)N(C)C(=O)c1ccc(-c2ccc3c(c2)COC3)cc1 (stereo not shown) [Compound 290, 2-[{[4-(1,3-dihydro-2-benzofuran-5-yl)phenyl]carbonyl}(methyl)amino]-N-hydroxy-N′-methylpropanediamide]
7.00 to 8.00 | CNC(=O)C(C(=O)NO)N(C)C(=O)c1ccc(-c2ccccc2)cc1F (stereo not shown) [Compound 27, 2-{[(3-fluorobiphenyl-4-yl)carbonyl](methyl)amino}-N-hydroxy-N′-methylpropanediamide]
< 7.00 | CNC(=O)C(C(=O)NO)N(C)C(=O)c1ccc(-c2ccc(C)nc2)cc1 (stereo not shown) [Compound 450, N-hydroxy-N′-methyl-2-(methyl {[4-(6-methylpyridin-3-yl)phenyl]carbonyl}amino)propanediamide]
7.00 to 8.00 | CNC(=O)C(C(=O)NO)N(C)C(=O)c1ccc(CCc2ccc(CCN3CCCOCC3)cc2)cc1 (stereo not shown) [Compound 210, N-hydroxy-N′-methyl-2-{methyl[4-(2-{4-[2-(1,4-oxazepan-4-yl)ethyl]phenyl}ethyl)benzoyl]amino}propanediamide]
> 8.00 | CNC(=O)C(C(=O)NO)N(C)C(=O)c1ccc(-c2ccc(NCC3CC3CNc3ccccc3)cc2)cc1 (stereo not shown) [Compound 103, N-hydroxy-N′-methyl-2-[methyl({4′-[({2-[(phenylamino)methyl]cyclopropyl}methyl)amino]biphenyl-4-yl}carbonyl)amino]propanediamide]
< 7.00 | CNC(=O)[C@](C)(C(=O)NO)N(C)C(=O)c1ccc(-c2ccccc2)cc1 [Compound 343, (2R)-2-[(biphenyl-4-ylcarbonyl)(methyl)amino]-N-hydroxy-N′,2-dimethylpropanediamide]
> 8.00 | CNC(=O)C(C(=O)NO)N(C)C(=O)c1ccc(-c2ccc(C#CCN3CCOCC3)cc2)cc1 (stereo not shown) [Compound 390, N-hydroxy-N′-methyl-2-[methyl({4′-[3-(morpholin-4-yl)prop-1-yn-1-yl]biphenyl-4-yl}carbonyl)amino]propanediamide]
7.00 to 8.00 | CNC(=O)C(C(=O)NO)N(C)C(=O)c1ccc(-c2ccc(NC)c(OC)c2)cc1 (stereo not shown) [Compound 50, N-hydroxy-2-[{[3′-methoxy-4′-(methylamino)biphenyl-4-yl]carbonyl}(methyl)amino]-N′-methylpropanediamide]
< 7.00 | CNC(=O)C(C(=O)NO)N(C)C(=O)c1ccc(-c2ccc(F)cn2)cc1 (stereo not shown) [Compound 108, 2-{[4-(5-fluoropyridin-2-yl)benzoyl](methyl)amino}-N-hydroxy-N′-methylpropanediamide]
< 7.00 | CNC(=O)C(C(=O)NO)N(C)C(=O)c1ccc(-c2cnccn2)cc1 (stereo not shown) [Compound 309, N-hydroxy-N′-methyl-2-(methyl {[4-(pyrazin-2-yl)phenyl]carbonyl}amino)propanediamide]
